Here are results for 13 compounds from patent publication US9771341B2, “Piperazine carbamates and methods of making and using same” (Abide Therapeutics, Inc., priority 2015, dated 2017).

Where two headings read alike, the source gives them in different places.

Holding throughout (type): biochemical
In experiment [1] the target is T1, MAGL (Mus musculus, UniProt O35678).
T1 construct: Proteomes (mouse brain membrane fraction or cell lysates); from tissue; host or cells: mouse brain membrane fraction (or unspecified cell lysates)
T1 sequence (O35678 1-303): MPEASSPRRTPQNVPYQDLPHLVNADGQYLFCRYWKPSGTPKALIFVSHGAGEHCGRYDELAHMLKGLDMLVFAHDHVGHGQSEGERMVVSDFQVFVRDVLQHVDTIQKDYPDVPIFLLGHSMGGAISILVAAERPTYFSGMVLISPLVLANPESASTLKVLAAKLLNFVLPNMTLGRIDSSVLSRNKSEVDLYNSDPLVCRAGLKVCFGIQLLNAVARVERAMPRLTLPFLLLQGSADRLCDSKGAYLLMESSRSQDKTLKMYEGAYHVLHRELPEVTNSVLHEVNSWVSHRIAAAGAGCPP
In words: In vitro competitive activity-based protein profiling (mouse), MAGL. The following applies: for inhibition at 1 µM: read-out: % Inhibition at 1 μM MAGL; for IC50: mouse brain membrane fraction or cell lysates, 30 min preincubation at 37° C, FP-Rh probe. The procedure:
(§1) In Vitro Competitive Activity-Based Protein Profiling (Mouse).
(§2) Proteomes (mouse brain membrane fraction or cell lysates) (50 μL, 1.0 mg/mL total protein concentration) were preincubated with varying concentrations of inhibitors at 37° C. After 30 min, FP-Rh (1.0 μL, 50 μM in DMSO) was added and the mixture was incubated for another 30 min at 37° C. Reactions were quenched with SDS loading buffer (50 μL-4×) and run on SDS-PAGE.

In experiment [2] the target is T2, FAAH (Mus musculus, UniProt O08914).
T2 construct: Proteomes (mouse brain membrane fraction or cell lysates); from tissue; host or cells: mouse brain membrane fraction (or unspecified cell lysates)
T2 sequence (O08914 1-579): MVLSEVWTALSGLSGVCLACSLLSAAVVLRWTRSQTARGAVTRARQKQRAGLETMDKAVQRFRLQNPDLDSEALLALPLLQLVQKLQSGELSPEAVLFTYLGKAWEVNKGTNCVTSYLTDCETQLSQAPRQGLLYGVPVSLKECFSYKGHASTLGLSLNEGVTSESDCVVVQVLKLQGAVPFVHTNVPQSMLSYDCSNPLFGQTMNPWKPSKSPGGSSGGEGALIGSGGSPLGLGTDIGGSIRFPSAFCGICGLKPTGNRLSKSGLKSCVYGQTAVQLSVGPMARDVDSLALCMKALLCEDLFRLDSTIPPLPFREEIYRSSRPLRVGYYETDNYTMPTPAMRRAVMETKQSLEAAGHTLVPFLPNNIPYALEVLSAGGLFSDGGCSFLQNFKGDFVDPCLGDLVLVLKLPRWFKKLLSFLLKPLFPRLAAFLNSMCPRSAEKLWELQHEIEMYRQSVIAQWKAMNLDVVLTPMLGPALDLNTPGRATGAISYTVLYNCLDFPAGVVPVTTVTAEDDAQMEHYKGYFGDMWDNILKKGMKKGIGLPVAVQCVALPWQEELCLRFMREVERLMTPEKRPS
The experiment is described as follows: In vitro competitive activity-based protein profiling (mouse), FAAH. The following applies: for inhibition at 1 µM: mouse proteome, in vitro; for IC50: mouse brain membrane fraction or cell lysates, 30 min preincubation at 37° C, FP-Rh probe. The method, then:
as §1
Proteomes (mouse brain membrane fraction or cell lysates) (50 μL, 1.0 mg/mL total protein concentration) were preincubated with varying concentrations of inhibitors at 37° C. After 30 min, FP-Rh (1.0 μL, 50 μM in DMSO) was added and the mixture was incubated for another 30 min at 37° C. Reactions were quenched with SDS loading buffer (50 μL-4×) and run on SDS-PAGE. Following gel imaging, serine hydrolase activity was determined by measuring fluorescent intensity of gel bands corresponding to MAGL, ABHD6 and FAAH using ImageJ 1.43u software.

For experiment [3], the target named is T3, ABHD6 (Mus musculus, UniProt Q8R2Y0).
T3 construct: Proteomes (mouse brain membrane fraction or cell lysates); from tissue; host or cells: mouse brain membrane fraction (or unspecified cell lysates)
T3 sequence (Q8R2Y0 1-336): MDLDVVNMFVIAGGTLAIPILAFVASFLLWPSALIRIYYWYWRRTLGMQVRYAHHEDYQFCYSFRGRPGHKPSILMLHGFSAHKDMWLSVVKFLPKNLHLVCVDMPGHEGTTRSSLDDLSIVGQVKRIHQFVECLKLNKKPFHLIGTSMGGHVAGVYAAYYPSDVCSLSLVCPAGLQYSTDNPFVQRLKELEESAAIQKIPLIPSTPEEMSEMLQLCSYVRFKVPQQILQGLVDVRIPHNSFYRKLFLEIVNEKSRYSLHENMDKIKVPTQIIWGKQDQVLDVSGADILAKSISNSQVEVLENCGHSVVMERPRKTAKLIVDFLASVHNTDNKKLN
In words: In vitro competitive activity-based protein profiling (mouse), ABHD6. The conditions noted are these: for inhibition at 1 µM: read-out: % Inhibition at 1 μM ABHD6; for IC50: mouse brain membrane fraction or cell lysates, 30 min preincubation at 37° C, FP-Rh probe. The procedure:
as §1, §2

One may read the inhibition as the share of the control response that was lost under treatment. One may read the IC50 as the midpoint of a concentration-inhibition curve. A higher IC50 goes with a need for much substance. For the compound `O=C(OC(C(F)(F)F)C(F)(F)F)N1CCN(Cc2cc(Cl)cc(CN3CCCC3)c2)CC1` [Example 29, 1,1,1,3,3,3-hexafluoropropan-2-yl 4-(3-chloro-5-(pyrrolidin-1-ylmethyl)benzyl)piperazine-1-carboxylate], the inhibition at 1 µM is over 75% in experiment [1] (1 μM, mouse proteome, in vitro); under 25% in experiment [2]; under 25% in experiment [3] (1 μM, mouse proteome, in vitro). Also, the IC50 was 100 to 1000 nM in experiment [1], over 1000 nM in experiment [2] and over 1000 nM in experiment [3].
`CN(C)C(=O)C1CCN(c2cc(Cl)ccc2CN2CCN(C(=O)OC(C(F)(F)F)C(F)(F)F)CC2)CC1` [Example 34, 1,1,1,3,3,3-hexafluoropropan-2-yl 4-(4-chloro-2-(4-(dimethylcarbamoyl)piperidin-1-yl)benzyl)piperazine-1-carboxylate]: the inhibition at 1 µM is over 75% in experiment [1] (1 μM, mouse proteome, in vitro); under 25% in experiment [2]; under 25% in experiment [3] (1 μM, mouse proteome, in vitro). The IC50 in experiment [1] is 100 to 1000 nM; in experiment [2], over 1000 nM; in experiment [3] it was over 1000 nM.
In the case of `NC(=O)C1CCN(c2cc(C(F)(F)F)ccc2CN2CCN(C(=O)OC(C(F)(F)F)C(F)(F)F)CC2)CC1` [Example 36, 1,1,1,3,3,3-hexafluoropropan-2-yl 4-(2-(4-carbamoylpiperidin-1-yl)-4-(trifluoromethyl)benzyl)piperazine-1-carboxylate], the inhibition at 1 µM in experiment [1] (1 μM, mouse proteome, in vitro) is over 75%; in experiment [2] it was under 25%; in experiment [3] (1 μM, mouse proteome, in vitro) it was over 75%. For the same compound, the IC50 was under 100 nM in experiment [1], over 1000 nM in experiment [2] and 100 to 1000 nM in experiment [3].
For `O=C(OC(C(F)(F)F)C(F)(F)F)N1CCN(Cc2ccc(Cl)cc2N2CCC(C(=O)N3CCCC3)CC2)CC1` [Example 37, 1,1,1,3,3,3-hexafluoropropan-2-yl 4-(4-chloro-2-(4-(pyrrolidine-1-carbonyl)piperidin-1-yl)benzyl)piperazine-1-carboxylate], the inhibition at 1 µM in experiment [1] (1 μM, mouse proteome, in vitro) is over 75%; in experiment [2], under 25%; in experiment [3] (1 μM, mouse proteome, in vitro), under 25%. For the same compound, the concentration for half-maximal inhibition (IC50) is 100 to 1000 nM in experiment [1], over 1000 nM in experiment [2] and over 1000 nM in experiment [3].
In the case of `Cc1cc(C)n(C2CN(c3cc(Cl)ccc3CN3CCN(C(=O)OC(C(F)(F)F)C(F)(F)F)CC3)C2)n1` [Example 38, 1,1,1,3,3,3-hexafluoropropan-2-yl 4-(4-chloro-2-(3-(3,5-dimethyl-1H-pyrazol-1-yl)azetidin-1-yl)benzyl)piperazine-1-carboxylate], the inhibition at 1 µM in experiment [1] (1 μM, mouse proteome, in vitro) is over 75%; in experiment [2] it was under 25%; in experiment [3] (1 μM, mouse proteome, in vitro) it was under 25%. Further, the IC50 in experiment [1] is under 100 nM; in experiment [2], over 1000 nM; in experiment [3], 100 to 1000 nM.
Take `O=C(OC(C(F)(F)F)C(F)(F)F)N1CCN(Cc2ccc(Cl)cc2N2CC[C@H](N3CCCS3(=O)=O)C2)CC1` [Example 46, 1,1,1,3,3,3-hexafluoropropan-2-yl (S)-4-(4-chloro-2-(3-(1,1-dioxidoisothiazolidin-2-yl)pyrrolidin-1-yl)benzyl)piperazine-1-carboxylate]: the inhibition at 1 µM in experiment [1] (1 μM, mouse proteome, in vitro) is over 75%; in experiment [2] it was 25 to 75%; in experiment [3] (1 μM, mouse proteome, in vitro), 25 to 75%. Also, the IC50 was under 100 nM in experiment [1], over 1000 nM in experiment [2] and over 1000 nM in experiment [3].
`CS(=O)(=O)N[C@@H]1CCN(c2cccc(C(F)(F)F)c2CN2CCN(C(=O)OC(C(F)(F)F)C(F)(F)F)CC2)C1` [Example 47, 1,1,1,3,3,3-hexafluoropropan-2-yl (R)-4-(2-(3-(methylsulfonamido)pyrrolidin-1-yl)-6-(trifluoromethyl)benzyl)piperazine-1-carboxylate]: the inhibition at 1 µM is over 75% in experiment [1] (1 μM, mouse proteome, in vitro); under 25% in experiment [2]; under 25% in experiment [3] (1 μM, mouse proteome, in vitro).
Consider `CS(=O)(=O)N[C@H]1CCN(c2cccc(C(F)(F)F)c2CN2CCN(C(=O)OC(C(F)(F)F)C(F)(F)F)CC2)C1` [Example 48, 1,1,1,3,3,3-hexafluoropropan-2-yl (S)-4-(2-(3-(methylsulfonamido)pyrrolidin-1-yl)-6-(trifluoromethyl)benzyl)piperazine-1-carboxylate], for which the inhibition at 1 µM in experiment [1] (1 μM, mouse proteome, in vitro) was 25 to 75%; in experiment [2], under 25%; in experiment [3] (1 μM, mouse proteome, in vitro), under 25%.
Regarding `O=C(OC(C(F)(F)F)C(F)(F)F)N1CCN(Cc2c(N3C4CCC3COC4)cccc2C(F)(F)F)CC1` [Example 49, 1,1,1,3,3,3-hexafluoropropan-2-yl 4-(2-(3-oxa-8-azabicyclo[3.2.1]octan-8-yl)-6-(trifluoromethyl)benzyl)piperazine-1-carboxylate], the results for the inhibition at 1 µM in experiment [1], in experiment [2] and in experiment [3] were 25 to 75%, under 25% and under 25%, respectively.
Take `O=C(OC(C(F)(F)F)C(F)(F)F)N1CCN(Cc2c(N3CC4CCC(C3)O4)cccc2C(F)(F)F)CC1` [Example 50, 1,1,1,3,3,3-hexafluoropropan-2-yl 4-(2-(8-oxa-3-azabicyclo[3.2.1]octan-3-yl)-6-(trifluoromethyl)benzyl)piperazine-1-carboxylate]: the inhibition at 1 µM in experiment [1] (1 μM, mouse proteome, in vitro) is under 25%; in experiment [2] it was under 25%; in experiment [3] (1 μM, mouse proteome, in vitro), under 25%.
Take `Cc1c(CN2CCN(C(=O)OC(C(F)(F)F)C(F)(F)F)CC2)cccc1N1CCC(NS(C)(=O)=O)CC1` [Example 52, 1,1,1,3,3,3-hexafluoropropan-2-yl 4-(2-methyl-3-(4-(methylsulfonamido)piperidin-1-yl)benzyl)piperazine-1-carboxylate]: the inhibition at 1 µM is over 75% in experiment [1] (1 μM, mouse proteome, in vitro); under 25% in experiment [2]; over 75% in experiment [3] (1 μM, mouse proteome, in vitro). Also, the IC50 was under 100 nM in experiment [1], over 1000 nM in experiment [2] and 100 to 1000 nM in experiment [3].
Consider `O=C(O)C1CCN(c2cc(Cl)ccc2CN2CCN(C(=O)OC(C(F)(F)F)C(F)(F)F)CC2)CC1` [Example 62, 1-(5-chloro-2-((4-(((1,1,1,3,3,3-hexafluoropropan-2-yl)oxy)carbonyl)piperazin-1-yl)methyl)phenyl)piperidine-4-carboxylic acid], for which the inhibition at 1 µM is over 75% in experiment [1] (1 μM, mouse proteome, in vitro); under 25% in experiment [2]; under 25% in experiment [3] (1 μM, mouse proteome, in vitro). For the same compound, the IC50 is 100 to 1000 nM in experiment [1], over 1000 nM in experiment [2] and over 1000 nM in experiment [3].
In the case of `O=C(O)C1CCN(c2cc(C(F)(F)F)ccc2CN2CCN(C(=O)OC(C(F)(F)F)C(F)(F)F)CC2)CC1` [Example 63, 1-(2-((4-(((1,1,1,3,3,3-hexafluoropropan-2-yl)oxy)carbonyl)piperazin-1-yl)methyl)-5-(trifluoromethyl)phenyl)piperidine-4-carboxylic acid], the inhibition at 1 µM in experiment [1] (1 μM, mouse proteome, in vitro) was over 75%; in experiment [2], under 25%; in experiment [3] (1 μM, mouse proteome, in vitro), over 75%. Besides, the IC50 is under 100 nM in experiment [1], over 1000 nM in experiment [2] and 100 to 1000 nM in experiment [3].
